# Test results published in patent US20240165196A1, “Beta-Lactamase Inhibitors” (VIB VZW, priority 2021, published 2024).
# Tests used:
# Assay type in all cases: cell-based
# E. coli TEM-104 = tested on: E. coli TEM-104; on Interpretation: key: S, susceptible; I, intermediate; R, resistant
# Procedure: (§1) Beta-lactamase clinical samples were collected from University Hospitals Leuven and tested for ESBL production using the disk diffusion method^61. The beta-lactamase reference isolates were purchased from IHMA International Health management associates. Bacterial strains were cultivated in Mueller Hinton Broth (MHB, Difco) at 37° C. Whenever required growth media were supplemented with appropriate antibiotic to the medium or plates (kanamycin 30 μg/mL, L-arabinose 0.5 mg/mL, and IPTG 1 mM/mL). Escherichia coli BL21 (Thermo Fisher Scientific, Belgium) was used for cloning and plasmid amplification. For selection of antibiotic resistance colonies, E. coli carrying plasmids was grown in LB agar plates supplemented with the relevant antibiotic. Bacterial CFU counting was done on blood agar plates (BD Biosciences, Belgium) or MHA agar plates. Species identification and antibiograms for all clinical isolates were performed using MALDI-Tof and VITEK® 2 automated system (BioMérieux, France).
# E. coli TEM-1 ? = tested on: E. coli TEM-1 ?
# Procedure: as §1
# E. coli TEM-148 = tested on: E. coli TEM-148; on Interpretation: key: S, susceptible; I, intermediate; R, resistant
# Procedure: as §1
# E. coli NDM ? b = experiment: antimicrobial susceptibility testing, VITEK 2 AST Cards
# Procedure: as §1
# E. coli SH ? (APHA) = experiment: as above
# Procedure: as §1
# E. coli TEM-206 = experiment: as above
# Procedure: as §1
# E. coli NDM ? a = experiment: as above
# Procedure: as §1
# [1] = tested on: E. coli clinical isolate, β-lactamase TEM-1; experiment: MIC of ampicillin without/with 30 μg/mL TEM3.2, clinical isolates; conditions: isolates year NA, country NA, ampicillin alone
# Procedure: (§2) Moreover, the core sequence of peptide TEM3.0 also occurs in the structurally related SHV β-lactamase (FIG. 2E). Although the C-terminal extension residues H and N have been replaced with physicochemically similar R and Q, respectively (FIG. 2H). […] To quantify the synergy between these four peptides and penicillin G, we performed a so-called checkerboard assay, which allows to compare the activity of two test compounds co-incubated (here peptide and a beta-lactam antibiotic), to their individual activities in isolation. The result from the assay is quantified as the Fractional Inhibitory Concentration Index (FICI), and it is generally accepted that values below 0.5 indicate synergistic effects between the compounds. As a control, we generated a peptide using the same design, but based on a previously identified APR from the β-galactosidase enzyme (BGAL)^16 from E. coli (APR=SVIIWSL, peptide sequence=[…]) that has a MIC value>100 μg/mL on E. coli strain UZ_TEM104. We evaluated the synergy of the peptides with penicillin G in clinical E. coli isolates carrying the TEM (FIG. 2I) or SHV enzymes (FIG. 2J). […] As a further control, we also performed a checkerboard assay with an E. coli strain that was resistant to the aminoglycoside kanamycin and observed no synergy between this unrelated antibiotic and our peptides (FIG. 2L), in line with the notion that we are inhibiting a beta-lactamase but not the aminoglycoside degrading enzyme. […] The list of strains included some that harbored only TEM or SHV, but others contained additional Ambler Class A (CTX-M or OXA) or Class B (VIM and NDM) beta-lactamases. […] In contrast, the presence of the NDM-type […], that does have a high affinity for Ampicillin and that is completely distinct in sequence and structure from TEM and SHV, seemed to completely prevent the effect of the peptide on the beta-lactam sensitivity of the strains in which it occurred (see also further). As it appeared that TEM3.2 had activity in most isolates tested, we decided to focus further analysis on this peptide. Furthermore, we tested the performance of the TEM3.2 peptide in a checkerboard assay on strains carrying ESBL mutants of TEM, i.e. extended-spectrum mutations that cluster around the active site of the enzyme, and not in the aggregation prone region targeted by the peptide, and as expected from our mode of action, we observed synergy with ampicillin on these strains (FIG. 2M).
# (§3) Determination of MIC values using the broth microdilution in the 96-well plate (BD Biosciences, Belgium) according to the EUCAST guideline, which was performed in 96-well polystyrene flat bottom microtiter plates (BD Biosciences). Briefly, a single colony was inoculated into 5 mL Difco™ Mueller Hinton Broth (BD Biosciences Ref 275730) and grown to the end-exponential growth phase in a shaking incubator at 37° C. Cultures were subsequently diluted to an MacFarland (0.5 optical density) then the culture was diluted to reach 10^6 CFU/mL in fresh MHB medium. 50 μl of different concentration of peptides ranging from 128 to 2 μg/mL were serially diluted to the sterile 96-well plate in MHB. 50 μL of the diluted bacteria in MHB were pipetted into 96-well plates to reach the final volume of 100 μL. The bacteria grown with the maximum concentration of carrier and medium were considered as positive and negative controls, respectively. The plates were statically incubated overnight at 37° C. to allow bacterial growth. OD was measured at 590 nm a multipurpose ultraviolet-visible plate reader, and the absorbance of the growth bacteria was measured using absorbance reader. Bacterial growth was also visually inspected and agreed well with the OD reading.
# [2] = tested on: E. coli clinical isolate, β-lactamase SHV-2; CTX-M-55; VIM-1; experiment: as above; conditions: isolate 2017 Turkey, UTI, Urine; ampicillin alone
# Procedure: as §2, §3
# [3] = tested on: E. coli clinical isolate, β-lactamase TEM-ESBL; CTX-M-24; OXA-48; experiment: as above; conditions: isolate 2017 Turkey, IAI, Abscess; ampicillin alone
# Procedure: as §2, §3
# [4] = tested on: E. coli clinical isolate, β-lactamase TEM-ESBL; CTX-M-15; NDM-5; experiment: as above; conditions: isolate 2017 Qatar, UTI, Urine; ampicillin alone
# Procedure: as §2, §3
# [5] = tested on: E. coli clinical isolate, β-lactamase TEM-ESBL; experiment: as above; conditions: ampicillin alone
# Procedure: as §2, §3
# [6] = tested on: E. coli clinical isolate, β-lactamase SHV-12; TEM-ESBL; experiment: as above; conditions: isolate 2017 Germany, RTI, Bronchi; ampicillin alone
# Procedure: as §2, §3
# [7] = tested on: E. coli clinical isolate, β-lactamase TEM-ESBL; CTX-M-TYPE; experiment: as above; conditions: isolate 2017 France, IAI, Peritoneal Fluid; ampicillin alone
# Procedure: as §2, §3
# [8] = tested on: E. coli clinical isolate, β-lactamase TEM-ESBL; CTX-M-15; NDM-19; experiment: as above; conditions: isolate 2017 Qatar, IAI, Abscess; ampicillin alone
# Procedure: as §2, §3
# [9] = tested on: E. coli clinical isolate, β-lactamase TEM-ESBL; CTX-M-27; experiment: as above; conditions: isolate 2017 Romania, UTI, Urine; ampicillin alone
# Procedure: as §2, §3
structure (smiles),measurement,setting,value
"CC1(C)S[C@@H]2[C@H](NC(=O)[C@H](N)c3ccccc3)C(=O)N2[C@H]1C(=O)O [ampicillin, Ampicillin]",Interpretation,E. coli TEM-104,R
same,MIC,E. coli TEM-104,≥ 32 µg/mL
same,Interpretation,E. coli TEM-1 ?,R
same,MIC,E. coli TEM-1 ?,≥ 32 µg/mL
same,Interpretation,E. coli TEM-148,R
same,MIC,E. coli TEM-148,≥ 32 µg/mL
same,Interpretation,E. coli NDM ? b,R
same,Interpretation,E. coli SH ? (APHA),R
same,Interpretation,E. coli TEM-206,R
same,MIC,E. coli TEM-206,≥ 32 µg/mL
same,Interpretation,E. coli NDM ? a,R
same,MIC ampicillin,[1],> 64 µg/mL
same,MIC ampicillin,[2],> 64 µg/mL
same,MIC ampicillin,[3],> 64 µg/mL
same,MIC ampicillin,[4],> 64 µg/mL
same,MIC ampicillin,"[5]; isolate 2016 Germany, UTI, Urine",> 64 µg/mL
same,MIC ampicillin,"[5]; isolate 2016 Lithuania, UTI, Urine",> 64 µg/mL
same,MIC ampicillin,"[5]; isolate 2017 Israel, UTI, Urine",> 64 µg/mL
same,MIC ampicillin,"[5]; isolate 2017 Portugal, RTI, Bronchi",> 64 µg/mL
same,MIC ampicillin,"[5]; isolates 2016 South Africa, IAI, Peritoneal Fluid",> 64 µg/mL
same,MIC ampicillin,[6],> 64 µg/mL
same,MIC ampicillin,[7],> 64 µg/mL
same,MIC ampicillin,[8],> 64 µg/mL
same,MIC ampicillin,[9],> 64 µg/mL
